Laboratory results as given in patent US4965272A, “Antimicrobial compound and compositions particularly effective against candida albicans” (priority 1988, dated 1990).
In brackets after ≈: the same amount, converted by molar mass.

Key:
Candida albicans 10231 = experiment: MIC, twofold serial broth dilution assay; assay type: cell-based; settings: ATCC10231; Candida albicans ATCC 10231; 24 and 48 hours at 37°
Procedure: (§1) Candida albicansNIH B311 used to induce experimental disseminated candidiasis was used for the initial qualitative evaluation of anticandidal activity. The organism was grown in Sabouraud-dextrose broth (SDB) for 14 hours at 37°, at which time the cells were harvested by centrifugation (4°, 2000 rpm, 3 min). After centrifugation, the cells were washed and suspended in sterile 0.9% saline to give a final concentration of […] colony forming units (CFU) per ml (adjusted using a hemocytometer). Culture plates (15×100 mm) for the qualitative assay were prepared from 25 ml of Sabouraud-dextrose agar. Using sterile cotton swabs, the plates were streaked with the suspension ([…] of Candida albicansB311. Cylindrical plugs were removed from the agar plates by means of a sterile cork borer to produce wells with a diameter of approximately 11 mm. To the well was added 100 μl of solution or suspension of an extract, fraction, or pure compound. Crude extracts and fractions were tested at a concentration of 20 mg/ml, whereas pure compounds were tested at 1 mg/ml. When solvents other than H2 O, EtOH, MeOH, DMSO, DMF, or Me2 CO were required to dissolve extracts or compounds, solvent blanks were included. Anticandidal activity was recorded as the width (in mm) of the zone of inhibition following incubation of the plates at 37° for 24 hours. The antifungal agents amphotericin-B and ketoconazole were included as standards in each assay.
(§2) The method used to determine the minimum inhibitory concentration (MIC) of the inventive compound was a twofold serial broth dilution assay in yeast nitrogen broth. In addition to Candida albicansB311, the MIC values for eupolauridine were also determined for two additional strains of Candida albicans: ATCC 10231 and a clinical isolate, designated WH. The inventive compound was initially tested using a concentration of 100 μg/ml in the first tube. The compound was added to sterile Sabouraud-dextrose broth as a solution in DMSO. The inoculum for the MIC determination was prepared as described for qualitative evaluation. […]

Candida albicans B311 = experiment: MIC, twofold serial broth dilution assay; assay type: cell-based; settings: 24 and 48 hours at 37°
Procedure: as §1, §2

Candida albicans WH = experiment: MIC, twofold serial broth dilution assay; assay type: cell-based; settings: Candida albicans clinical isolate WH; 24 and 48 hours at 37°
Procedure: as §1, §2

Candida albicans [1] = experiment: in vivo testing, disseminated infection of Candida albicans in outbred mice
Text: In the in vivo testing of the inventive compound and compositions, outbred mice were used. A disseminated infection of Candida albicansin the test animals was achieved by intravenous injection of 0.5 to 1×10^6 CFU of the pathogen. The organism is rapidly cleared from the blood and most tissues, except the kidney which is the primary target organ for the disseminated infection in mice. It is known than an inoculum of 0.5×10^6 CFU will cause death of outbred mice within 10-14 days due to disseminated infection if untreated. The vehicle used for administering the compound of the invention was a mixture consisting of 50% USP water, 40% propylene glycol and 10% absolute ethonol.

Aspergillus flavus 9170 = experiment: MIC, twofold serial broth dilution assay; assay type: cell-based
[2] = tested on: Trichophyton mentagrophytes 9972; experiment: MIC, twofold serial broth dilution assay; assay type: cell-based
Candida albicans [3] = experiment: anticandidal activity, agar-well diffusion assay (zone of inhibition); assay type: cell-based; settings: three test strains of Candida albicans
Procedure: In vitro evaluation of the anticandidal activity of the inventive compound and compositions was carried out using the agar-well diffusion assay as follows:
Candida albicansNIH B311 used to induce experimental disseminated candidiasis was used for the initial qualitative evaluation of anticandidal activity. The organism was grown in Sabouraud-dextrose broth (SDB) for 14 hours at 37°, at which time the cells were harvested by centrifugation (4°, 2000 rpm, 3 min). After centrifugation, the cells were washed and suspended in sterile 0.9% saline to give a final concentration of […] colony forming units (CFU) per ml (adjusted using a hemocytometer). Culture plates (15×100 mm) for the qualitative assay were prepared from 25 ml of Sabouraud-dextrose agar. […] Anticandidal activity was recorded as the width (in mm) of the zone of inhibition following incubation of the plates at 37° for 24 hours. […]

[4] = tested on: Saccharomyces cerevisiae 9763; experiment: MIC, twofold serial broth dilution assay; assay type: cell-based
[5] = tested on: Aspergillus fumigatus 26934; experiment: MIC, twofold serial broth dilution assay; assay type: cell-based
[6] = tested on: Cryptococcus neoformans 32264; experiment: MIC, twofold serial broth dilution assay; assay type: cell-based
[7] = humans, under varying conditions; cited from earlier work

c1ccc2c(c1)-c1nccc3ccnc-2c13 [Eupolauridine, eupolauridine]
MIC (Candida albicans 10231): 1.56 µg/mL (≈ 7.64 µM)
MIC (Candida albicans B311): 1.56 µg/mL (≈ 7.64 µM)
MIC (Candida albicans WH): 1.56 µg/mL (≈ 7.64 µM)
Number dead/Total (Candida albicans [1]; 2 mg/kg, day 1): 0/10
Number dead/Total (Candida albicans [1]; 2 mg/kg, day 2): 0/10
Number dead/Total (Candida albicans [1]; 2 mg/kg, day 3): 0/10
Number dead/Total (Candida albicans [1]; 2 mg/kg, day 4): 0/10
Number dead/Total (Candida albicans [1]; 2 mg/kg, day 5): 0/10
Number dead/Total (Candida albicans [1]; 2 mg/kg, day 6): 1/10
Number dead/Total (Candida albicans [1]; 2 mg/kg, day 7): 3/10
Number dead/Total (Candida albicans [1]; 2 mg/kg, day 8): 4/10
Number dead/Total (Candida albicans [1]; 2 mg/kg, day 9): 4/10
Number dead/Total (Candida albicans [1]; 2 mg/kg, day 10): 7/10
Number dead/Total (Candida albicans [1]; 7 mg/kg, day 1): 0/10
Number dead/Total (Candida albicans [1]; 7 mg/kg, day 2): 0/10
Number dead/Total (Candida albicans [1]; 7 mg/kg, day 3): 2/10
Number dead/Total (Candida albicans [1]; 7 mg/kg, day 4): 2/10
Number dead/Total (Candida albicans [1]; 7 mg/kg, day 5): 2/10
Number dead/Total (Candida albicans [1]; 7 mg/kg, day 6): 3/10
Number dead/Total (Candida albicans [1]; 7 mg/kg, day 7): 3/10
Number dead/Total (Candida albicans [1]; 7 mg/kg, day 8): 3/10
Number dead/Total (Candida albicans [1]; 7 mg/kg, day 9): 4/10
Number dead/Total (Candida albicans [1]; 7 mg/kg, day 10): 7/10
animals survived (Candida albicans [1]; 20 mg/kg body weight, 10 days): 50%
survival compared with amphotericin-B (Candida albicans [1]; 20 mg/kg body weight, 10 days): not statistically significantly different from the results with amphotericin-B
Number dead/Total (Candida albicans [1]; 20 mg/kg, day 1): 0/10
Number dead/Total (Candida albicans [1]; 20 mg/kg, day 2): 0/10
Number dead/Total (Candida albicans [1]; 20 mg/kg, day 3): 0/10
Number dead/Total (Candida albicans [1]; 20 mg/kg, day 4): 0/10
Number dead/Total (Candida albicans [1]; 20 mg/kg, day 5): 0/10
Number dead/Total (Candida albicans [1]; 20 mg/kg, day 6): 0/10
Number dead/Total (Candida albicans [1]; 20 mg/kg, day 7): 1/10
Number dead/Total (Candida albicans [1]; 20 mg/kg, day 8): 3/10
Number dead/Total (Candida albicans [1]; 20 mg/kg, day 9): 3/10
Number dead/Total (Candida albicans [1]; 20 mg/kg, day 10): 5/10
MIC (Aspergillus flavus 9170): 6.25 µg/mL (≈ 30.6 µM)
MIC [2]: 1.56 µg/mL (≈ 7.64 µM)
zone of inhibition (Candida albicans [3]): remarkable zone of inhibition
MIC [4]: 3.12 µg/mL (≈ 15.3 µM)
MIC [5]: 6.25 µg/mL (≈ 30.6 µM)
MIC [6]: 1.56 µg/mL (≈ 7.64 µM)

C[C@@H]1[C@H](O)[C@@H](C)/C=C/C=C/C=C/C=C/C=C/C=C/C=C/[C@H](O[C@@H]2O[C@H](C)[C@@H](O)[C@H](N)[C@@H]2O)C[C@@H]2O[C@](O)(C[C@@H](O)C[C@@H](O)[C@H](O)CC[C@@H](O)C[C@@H](O)CC(=O)O[C@H]1C)C[C@H](O)[C@H]2C(=O)O [Amphotericin-B, amphotericin-B, reference compound]
Number dead/Total (Candida albicans [1]; 2.5 mg/kg, day 1): 0/10
Number dead/Total (Candida albicans [1]; 2.5 mg/kg, day 2): 0/10
Number dead/Total (Candida albicans [1]; 2.5 mg/kg, day 3): 0/10
Number dead/Total (Candida albicans [1]; 2.5 mg/kg, day 4): 0/10
Number dead/Total (Candida albicans [1]; 2.5 mg/kg, day 5): 0/10
Number dead/Total (Candida albicans [1]; 2.5 mg/kg, day 6): 1/10
Number dead/Total (Candida albicans [1]; 2.5 mg/kg, day 7): 2/10
Number dead/Total (Candida albicans [1]; 2.5 mg/kg, day 8): 2/10
Number dead/Total (Candida albicans [1]; 2.5 mg/kg, day 9): 4/10
Number dead/Total (Candida albicans [1]; 2.5 mg/kg, day 10): 4/10
side effects [7]: fever, anorexia, nausea and vomiting, diarrhea, muscle and joint pain, phlebitis and thiophlebitis, anemia, abnormal renal function, anuria, cardiovascular distress, hypertension and hypotension
